“Also recorded” adds a separate entry of the source. Like-named read-outs stand apart in the source and are kept apart here.
Columns and labels:
[1] = In vitro redox-cycling phenol red/horseradish peroxidase reporter assay; conditions: phenol red/HRP with DTT
Description: The in vitro redox-cycling capability of compounds was assessed by phenol red/horseradish peroxidase (HRP) assay by adaption of a previously described protocol. Briefly, stocks were prepared as follows: (1) DTT to a concentration of […] in PBS pH 7.4 buffer; (2) compound stocks in PBS pH 7.4 buffer to 3× the desired concentration by 1,000× dilution of DMSO stocks; (3) a stock of phenol red/HRP detection reagent containing 300 µg ml^−1 phenol red and 180 µg ml^−1 HRP enzyme in PBS pH 7.4 buffer; (4) a stock of 1 M NaOH in water; (5) a stock of 100 µM H2O2 in PBS prepared by addition of a 30% solution of H2O2 in water into 1,000 µl of PBS. Into each well of a 96-well clear flat-bottomed plate was then added 40 µl of compound stock in PBS followed by 40 µl of DTT stock, followed immediately by 40 µl of phenol red/HRP reagent. A positive control with 100 µM H2O2 added in place of compound was included. The plate was incubated in the dark at room temperature for 15 min. Following this, 20 µl of 1 M NaOH was added to each well to terminate the reaction. Absorbance was immediately measured at 610 nm (MiniMax i3x Imager, Molecular Devices). Absorbance of treated wells was normalized to control wells treated with PBS only (zero redox cycling).

[2] = test system: ovine blood; assay: Methaemoglobin analysis in ovine blood; design: species or system sheep; conditions: for methaemoglobin formation: in vitro ovine blood model, 1 h incubation
Description: Defibrinated Oxoid sheep’s blood (ThermoScientific) was diluted to a 5% v/v suspension in PBS pH 7.4. In a 96-well microtitre plate, 150 µl of blood suspension was added to 50 µl of serially diluted compound in PBS containing a 4× stock of each compound of interest. Serial dilution of compounds from DMSO stocks into PBS was performed to achieve an in-plate DMSO concentration of 0.1%. PBS buffer alone was used as a negative control. The plate was incubated for the specified time at 37 °C. The plate was then centrifuged at 3,500 r.p.m. for 5 min. The supernatant was removed and cells lysed by resuspension in 100 µl of a solution of Triton-X-100 (1%) in PBS. Following this, 80 µl of lysed cell contents were transferred to a second microtitre plate for ultraviolet measurement. Ultraviolet absorbance was measured immediately at 630 nm (MiniMax i3x Imager, Molecular Devices). Methaemoglobin increase was determined by A630−A6300/A6300×100 , where A630 is the absorbance of the test well at 630 nm, and A6300 is the absorbance of the negative control at 630 nm.

[3] = target: T1, recombinant human 5-LO (Homo sapiens, UniProt P09917); assay: Cell-free activity assay for recombinant human 5-LO; assay type: biochemical
T1 construct: made in house; host or cells: Escherichia coli BL21
T1 sequence (P09917 1-674): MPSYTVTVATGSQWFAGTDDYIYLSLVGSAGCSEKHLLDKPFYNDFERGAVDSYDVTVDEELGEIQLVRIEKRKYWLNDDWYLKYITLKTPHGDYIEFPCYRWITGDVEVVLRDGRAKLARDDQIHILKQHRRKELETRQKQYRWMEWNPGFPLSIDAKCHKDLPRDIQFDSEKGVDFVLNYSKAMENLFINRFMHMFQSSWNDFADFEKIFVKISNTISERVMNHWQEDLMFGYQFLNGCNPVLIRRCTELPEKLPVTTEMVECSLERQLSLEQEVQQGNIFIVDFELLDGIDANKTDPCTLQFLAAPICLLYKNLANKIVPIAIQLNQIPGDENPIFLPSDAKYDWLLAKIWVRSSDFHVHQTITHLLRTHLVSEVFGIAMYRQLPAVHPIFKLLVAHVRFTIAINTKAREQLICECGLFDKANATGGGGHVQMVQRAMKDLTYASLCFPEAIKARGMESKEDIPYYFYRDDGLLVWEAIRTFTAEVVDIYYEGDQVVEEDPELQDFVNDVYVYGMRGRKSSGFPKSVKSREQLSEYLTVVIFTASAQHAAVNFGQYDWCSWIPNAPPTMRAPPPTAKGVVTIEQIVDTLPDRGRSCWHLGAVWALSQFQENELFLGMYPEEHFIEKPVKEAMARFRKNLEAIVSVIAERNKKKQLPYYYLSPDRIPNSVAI
Description: Escherichia coli (BL21) was transformed with pT3-5-LO plasmid, and recombinant 5-LO protein was expressed at 30 °C as described. Cells were lysed in 50 mM triethanolamine/HCl pH 8.0, 5 mM EDTA, 1 mM phenylmethanesulfonyl fluoride, soybean trypsin inhibitor (60 μg ml^−1) and lysozyme (1 mg ml^−1), homogenized by sonication (3 × 15 s) and centrifuged at 40,000g for 20 min at 4 °C. The 40,000g supernatant (S40) was applied to an ATP–agarose column to partially purify 5-LO as described. Aliquots of semipurified 5-LO (0.5 μg) were diluted with 1 ml ice-cold PBS containing 1 mM EDTA. Samples were preincubated with the test compound or vehicle (0.1% DMSO) with or without 1 mM DTT, as indicated. After 10 min at 4 °C, samples were prewarmed for 30 s at 37 °C, and 2 mM CaCl2 plus 20 μM arachidonic acid was added to start the formation of 5-LO products. After 10 min, the reaction was stopped by addition of 1 volume of ice-cold methanol, and the formed 5-LO products were analysed by reverse-phase HPLC as described. 5-LO products include the all-trans isomers of LTB4 (trLTB4 isomers) and 5(S)-hydroperoxy-6-trans-8,11,14-cis-eicosatetraenoic acid and its corresponding alcohol 5(S)-hydroxy-6-trans-8,11,14-cis-eicosatetraenoic acid.

[4] = test system: AML cell line HL-60; assay: N-Acetyl cysteine cytotoxicity assay (trypan blue exclusion); assay type: cell-based; conditions: Homo sapiens, 96 h
Description: For assays involving cytotoxicity of β-lapachone derivatives with and without antioxidant N-acetyl cysteine, HL-60 cells were plated into 24-well plates at a concentration of 2.5 × 10^5 cells ml^−1 in 450 µl. To each well was then added 25 µl of drug diluted in PBS to obtain the correct in-plate drug concentration, and 25 µl of PBS or a stock of N-acetyl cysteine at 12 mM in PBS. DMSO was maintained at an in-plate concentration of 0.1%. After 96 h incubation, toxicity was assessed by counting of live cells using the trypan blue exclusion method with a Countess II Automated Cell Counter (ThermoFisher Scientific) according to the manufacturer’s instructions. Cell viability was determined by dividing the average live cell number of treated wells by the average live cell number for control wells treated with 0.1% DMSO. Viability for wells treated with N-acetyl cysteine was assessed by comparison with control wells treated with N-acetyl cysteine and 0.1% DMSO. IC50 values were calculated using GraphPad Prism 8 software.

[5] = without DTT, read-out: IC50, 5-LO inhibition without DTT
[6] = with ROS quencher NAC (600 µM), read-out: IC50, toxicity to HL-60 with NAC
[7] = without NAC, read-out: IC50, toxicity to HL-60 without NAC

IC50 ([3]; with DTT (1 mM), read-out: IC50, 5-LO inhibition with DTT) | SMILES | concentration above which redox activity saturates the assay [1] | lowest dose concentration with detectable methaemoglobin formation ([2]; after 1 h of incubation) | methaemoglobin formation [2] | IC50 [3, 5] | IC50 [4, 6] | IC50 [4, 7] | in vitro redox activity ([1]; up to 25 μM)
– | CC1(C)CCC2=C(O1)c1ccccc1C(=O)C2=O [Compound 1, β-lapachone, reference compound] | above 10 μM | 10 µM | dose-dependent methaemoglobin formation | > 30 µM | 1.18 ± 0.18 µM | 0.47 ± 0.26 µM | –
10.4 ± 4.1 µM | CC1(C)CCC2=C(O1)c1ccccc1C(O)(Cc1ccccc1)C2=O (stereo not drawn) [Compound 24, benzyl β-lapa-ketol] | – | – | did not occur | 8 ± 2.5 µM | 10.5 ± 0.9 µM | 13.6 ± 1.3 µM | non-redox active; also recorded: no measurable redox activity

Source: publication PMC9252919, “Controlled masking and targeted release of redox-cycling ortho-quinones via a C–C bond-cleaving 1,6-elimination” (Nature Chemistry, 2022)
